{
  "source": "patent US4366158A",
  "about": "“1-(8-Quinolyl)-2-pyrrolidone and its pharmaceutical compositions” (Burroughs Wellcome Co., priority 1979, dated 1982)",
  "key": {"[1]": {"system": "mouse", "test": "Acetic Acid Writhing Test (AAWT), mouse", "format": "in vivo", "details": "po", "from_the_text": "(§1) Using the procedure described by Koster et al. in Fed. […] 26, Anti-inflammatory Drugs, Ed."}, "[2]": {"system": "rat", "test": "Yeast-Induced Hyperthermia Assay", "format": "in vivo", "details": "for ED50: po; for antipyretic and hypothermic activity: rat", "from_the_text": "The Yeast-Induced Hyperthermia Assay was used according to the procedure described by Khalili-Varasteh et al. in Arch. Int. Pharmacodyn."}, "[3]": {"system": "rat", "test": "Carrageenin Pleurisy Assay (CPA), mobilized neutrophils at 3 hours", "format": "in vivo", "details": "Neutrophil, po, read-out: ED50, 3 hr. Cells", "protocol": "Following the procedure described by Vinegar et al. in Proc Soc Exp Biol Med 151, 556, (1976), the acute anti-inflammatory activity of the compound of formula (I) was compared with that of known anti-inflammatory drugs in the rat. Two assays were performed: in the first, the average 3 hour exudate volume for each drug-treated group was determined and the % inhibition relative to solvent-fed control animals calculated, the ED50 being the dose required to reduce the 3 hour exudate volume by 50%; in the second, the number of mobilized neutrophils was quantified and the % inhibition relative to solvent-fed control animals calculated, the ED50 being the dose required to reduce the number of neutrophils mobilized at 3 hours by 50%."}, "[4]": {"system": "rat", "test": "Carrageenin Hindlimb Oedema Assay (CHOA)", "format": "in vivo"}, "[5]": {"system": "rat", "test": "Carrageenin Pleurisy Assay (CPA), 3 hour exudate volume", "format": "in vivo", "details": "for ED50: po, read-out: ED50, 3 hr. Vol"}, "[6]": {"system": "rat", "test": "Acetic Acid Writhing Test (AAWT), rat", "format": "in vivo", "details": "po", "from_the_text": "as §1"}, "[7]": {"system": "rat", "format": "in vivo"}, "[8]": {"system": "rat", "test": "Trypsin Hyperalgesic Assay (Modified THA)", "format": "in vivo", "details": "po", "protocol": "(§2) The analgesic agents were administered 30 minutes after the administration of trypsin. In addition, a modification of Vinegar's published assay was carried out, comprising the administration of the analgesic agent preceding subplantar injection of trypsin (0.10 ml of 10% solution of trypsin in pyrogen-free water) by 15 minutes. In both THA's, pain scores were determined 60 minutes after trypsin injection."}, "[9]": {"test": "Toxicity Test", "details": "rat, in vivo, po", "protocol": "Four non-fasted male rats of 160-250 gram body weight was used for each dose level. The compound to be tested was administered by the indicated route and the symptom onset time, the intensity of the effect and the duration during a 4 hour observation period were recorded. The LD50 estimation was based on a 7 day observation and was determined by the method of Miller and Tainter (Proc. Soc. Exp. Biol. Med. 57, 261 (1944))."}, "[10]": {"test": "acetic acid writhing assays (species not stated)", "format": "in vivo", "details": "in words"}, "[11]": {"system": "rat", "test": "Trypsin Hyperalgesic Assay (Published THA)", "format": "in vivo", "details": "for ED50: po, 0.5 h", "protocol": "as §2"}, "[12]": {"system": "brain", "test": "analgesic activity when injected directly into the brain", "format": "in vivo"}, "[13]": {"test": "inhibition of analgesic activity by naloxone", "format": "in vivo"}, "[14]": {"test": "solubility of the base", "format": "physicochemical"}, "[15]": {"system": "prostaglandin cyclooxygenase", "test": "inhibition of prostaglandin cyclooxygenase", "format": "biochemical"}, "[16]": {"system": "lipoxygenase", "test": "inhibition of lipoxygenase", "format": "biochemical"}, "[17]": {"system": "morphine receptor", "test": "binding to the morphine receptor"}, "[18]": {"system": "peroxidase", "test": "inhibition of peroxidase", "format": "biochemical"}, "[19]": {"system": "rat", "test": "anti-inflammatory action in the rat, in words (carrageenin pleurisy and carrageenin hindlimb oedema assays)", "format": "in vivo"}, "[20]": {"details": "male rats, 7 day observation, method of Miller and Tainter, read-out: LD50"}, "[21]": {"details": "Rat Yeast Hyperthermia, p.o., read-out: ED50"}, "[22]": {"details": "CPA, neutrophils mobilized at 3 hours reduced by 50%, rat, p.o."}, "[23]": {"details": "CPA, 3 hour exudate volume reduced by 50%, rat, p.o."}, "[24]": {"details": "AAWT, rat, p.o., read-out: ED50"}, "[25]": {"details": "Modified THA, rat, p.o., agent 15 minutes before trypsin, read-out: ED50"}, "[26]": {"details": "Published THA, rat, p.o., agent 30 minutes after trypsin, read-out: ED50"}},
  "note": "Where two headings read alike, the source gives them in different places.",
  "data": [
    {"compound": "CC(=O)Oc1ccccc1C(=O)O", "note": "[Aspirin]", "values": [
      {"measurement": "ED50", "setting": "[1]; Mus musculus", "value": "137 ± 16.9", "unit": "mg/kg"},
      {"measurement": "ED50", "setting": "[2]", "value": "50 ± 8.1", "unit": "mg/kg"},
      {"measurement": "ED50", "setting": "[3]; Rattus norvegicus, 3 h", "value": "75 ± 7.5", "unit": "mg/kg"},
      {"measurement": "ED50", "setting": "[4]; Rattus norvegicus", "value": "145 ± 74", "unit": "mg/kg"},
      {"measurement": "ED50", "setting": "[5]; Rattus norvegicus, 3 h", "value": "28 ± 3.2", "unit": "mg/kg"},
      {"measurement": "ED50", "setting": "[6]; Rattus norvegicus", "value": "21 ± 3.4", "unit": "mg/kg"},
      {"measurement": "gastric damage", "setting": "[7]; single oral dose of 30 mg/kg", "value": "produces ulcers and haemorrhages"},
      {"measurement": "ED50", "setting": "[8]; Rattus norvegicus", "value": "> 180", "unit": "mg/kg"},
      {"measurement": "NOAEL at 4 h", "setting": "[9]; male rats, 4 hour observation, read-out: No symptom dose", "value": 10, "unit": "mg/kg"},
      {"measurement": "LD50 at 168 h", "setting": "[9]; [20]", "value": 1610, "unit": "mg/kg"},
      {"measurement": "activity in the former (acetic acid writhing) assay", "setting": "[10]", "value": "inactive in the former assay"},
      {"measurement": "ED50", "setting": "[11]; Rattus norvegicus", "value": "> 180", "unit": "mg/kg"}
    ]},
    {"compound": "O=C1CCCN1c1cccc2cccnc12", "note": "[Compound of Formula (I), 1-(8-quinolyl)-2-pyrrolidinone]", "values": [
      {"measurement": "analgesic activity on injection into the brain", "setting": "[12]", "value": "inactive when injected directly into the brain"},
      {"measurement": "ED50", "setting": "[1]; AAWT, mouse, p.o., read-out: ED50", "value": "99 ± 9.8", "unit": "mg/kg"},
      {"measurement": "inhibition of analgesic activity by naloxone", "setting": "[13]", "value": "not inhibited by naloxone"},
      {"measurement": "effect on body temperature of rats with a normal temperature", "setting": "[2]; in words, higher dose levels", "value": "lowers the body temperature of rats"},
      {"measurement": "antipyretic and hypothermic activity", "setting": "[2]; in words", "value": "antipyretic and hypothermic activity"},
      {"measurement": "ED50", "setting": "[2]; [21]", "value": "22 ± 3.9", "unit": "mg/kg"},
      {"measurement": "ED50", "setting": "[3]; [22]", "value": "37 ± 10.4", "unit": "mg/kg"},
      {"measurement": "ED50", "setting": "[4]; CHOA, rat, read-out: ED50", "value": "54 ± 31.6", "unit": "mg/kg"},
      {"measurement": "duration of acute anti-inflammatory activity (time of drug administration prior to carrageenin in which inhibition of 3 hour pleural exudate volume declined to 40%)", "setting": "[5]; CPA, 80 mg/kg (p.o.)", "value": 9, "unit": "h"},
      {"measurement": "ED50", "setting": "[5]; [23]", "value": "20 ± 4.3", "unit": "mg/kg"},
      {"measurement": "solubility", "setting": "[14]; in 0.1 N HCl", "value": "> 50", "unit": "mg/mL"},
      {"measurement": "solubility", "setting": "[14]; in water", "value": "> 50", "unit": "mg/mL"},
      {"measurement": "inhibition of prostaglandin cyclooxygenase", "setting": "[15]", "value": "does not inhibit"},
      {"measurement": "inhibition of lipoxygenase", "setting": "[16]", "value": "does not inhibit"},
      {"measurement": "ED50", "setting": "[6]; [24]", "value": "22 ± 2.1", "unit": "mg/kg"},
      {"measurement": "gastric damage", "setting": "[7]; rat, 5 days of oral dosing at 40 mg/kg", "value": "does not produce gastric damage"},
      {"measurement": "gastric damage", "setting": "[7]; rat, single oral dose of 200 mg/kg", "value": "does not produce gastric damage"},
      {"measurement": "ED50", "setting": "[8]; [25]", "value": "13 ± 1.8", "unit": "mg/kg"},
      {"measurement": "binding to the morphine receptor", "setting": "[17]", "value": "does not appreciably bind to the morphine receptor"},
      {"measurement": "inhibition of peroxidase", "setting": "[18]", "value": "does not inhibit"},
      {"measurement": "anti-inflammatory activity", "setting": "[19]; rat", "value": "potent, long-lasting acute anti-inflammatory activity"},
      {"measurement": "anti-inflammatory effect compared with acetaminophen", "setting": "[19]; versus acetaminophen", "value": "more potent and to have a longer lasting anti-inflammatory effect"},
      {"measurement": "NOAEL at 4 h", "setting": "[9]", "value": 250, "unit": "mg/kg"},
      {"measurement": "LD50 at 168 h", "setting": "[9]; [20]", "value": 1650, "unit": "mg/kg"},
      {"measurement": "ED50", "setting": "[11]; [26]", "value": "37 ± 7.8", "unit": "mg/kg"},
      {"measurement": "duration of analgesic activity (time of drug administration prior to trypsin in which inhibition of hyperalgesia declined to 40%)", "setting": "[11]; published THA, 75 mg/kg (p.o.)", "value": 10.8, "unit": "h"}
    ]},
    {"compound": "CC(=O)Nc1ccc(O)cc1", "note": "[Acetaminophen]", "values": [
      {"measurement": "antipyretic and hypothermic activity", "setting": "[2]; in words", "value": "antipyretic and hypothermic activity"},
      {"measurement": "ED50", "setting": "[2]; [21]", "value": "72 ± 8.6", "unit": "mg/kg"},
      {"measurement": "ED50", "setting": "[3]; [22]", "value": "189 ± 48.6", "unit": "mg/kg"},
      {"measurement": "duration of acute anti-inflammatory activity (time of drug administration prior to carrageenin in which inhibition of 3 hour pleural exudate volume declined to 40%)", "setting": "[5]; CPA, 220 mg/kg (p.o.)", "value": "over 2 hours"},
      {"measurement": "ED50", "setting": "[5]; [23]", "value": "172 ± 22.4", "unit": "mg/kg"},
      {"measurement": "ED50", "setting": "[6]; [24]", "value": "127 ± 16.6", "unit": "mg/kg"},
      {"measurement": "ED50", "setting": "[8]; [25]", "value": "95 ± 17.2", "unit": "mg/kg"},
      {"measurement": "LD50 at 168 h", "setting": "[9]", "value": 2000, "unit": "mg/kg"},
      {"measurement": "NOAEL at 4 h", "setting": "[9]", "value": 250, "unit": "mg/kg"},
      {"measurement": "ED50", "setting": "[11]; [26]", "value": 360, "unit": "mg/kg"}
    ]}
  ]
}
